This note sets out measurements from patent publication US20230174521A1, “NOVEL DIACYLGLYCERIDE O-ACYLTRANSFERASE 2 INHIBITORS” (Merck Sharp & Dohme LLC, priority 2020, published 2023).

The target in the assay is T1, human DGAT2 (hDGAT2) (Homo sapiens, UniProt Q96PD7).
T1 construct: made in house; host or cells: Sf-9 insect cells (baculovirus infection); membrane fraction
T1 sequence (Q96PD7 1-388): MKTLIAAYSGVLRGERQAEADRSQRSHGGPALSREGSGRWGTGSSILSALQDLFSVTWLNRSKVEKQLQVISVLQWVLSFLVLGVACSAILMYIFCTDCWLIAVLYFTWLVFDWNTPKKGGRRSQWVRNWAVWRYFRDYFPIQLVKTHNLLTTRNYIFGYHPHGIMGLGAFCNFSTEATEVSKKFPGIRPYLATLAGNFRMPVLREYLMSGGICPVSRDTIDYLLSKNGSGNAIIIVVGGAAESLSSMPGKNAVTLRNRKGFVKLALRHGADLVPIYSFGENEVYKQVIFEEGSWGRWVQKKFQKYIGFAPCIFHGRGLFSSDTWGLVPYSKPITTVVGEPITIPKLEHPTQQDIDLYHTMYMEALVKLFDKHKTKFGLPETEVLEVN
The experiment in a line: DGAT2 enzymatic activity assay (LC/MS/MS detection of 13C18-triolein, Sf-9 membrane prep). It counts as biochemical. Conditions: hDGAT2 Sf-9 membrane, 25 μM diolein, 5 μM 13C oleoyl-CoA, rt. The protocol: Sf-9 insect cells were maintained in Grace's insect cell culture medium with 10% heated-inactivated fetal bovine serum, 1% Pluronic F-68 and 0.14 μg/ml Kanamycine sulfate at 27° C. in a shaker incubator. After infection with untagged baculovirus expressing human DGAT2 (hDGAT2) at multiplicity of infection (MOI) 3 for 48 hours, cells were harvested. Cell pellets were suspended in buffer containing 10 mM Tris-HCl pH 7.5, 1 mM EDTA, 250 mM sucrose and Complete Protease Inhibitor Cocktail (Sigma Aldrich), and sonicated on ice. Cell debris were removed by centrifugation at 2000×g for 15 minutes. Membrane fractions were isolated by ultracentrifugation (100,000×g), resuspended in the same buffer, and frozen (−80° C.) for later use. The protein concentration was determined with the Pierce™ BCA Protein Assay Kit (Thermo Fisher Scientific). Expression of protein levels was analyzed by immunoblotting with rabbit anti-DGAT2 antibody (Abcam, ab102831) and donkey anti-rabbit IgG H&L Alexa Fluor® 647 (Abcam, ab150075) followed by detection using Typhoon FLA9000 (GE Healthcare).
LC/MS/MS analyses were performed using Thermal Fisher's LX4-TSQ Vantage system. This system consists of an Agilent binary high-performance liquid chromatography (HPLC) pumps and a TSQ Vantage triple quadrupole MS/MS instrument. For each sample, 2 μL samples from the top organic layer of in-plate liquid-liquid extraction were injected onto a Thermo Betabasic C4 column (2.1 mm×20 mm, 5 μm particle size). The samples were then eluted using the following conditions; mobile phase: Isopropanol: acetonitrile/10 mM ammonium formate=50/35/15 (v/v/v), flow rate: 0.8 mL/min, temperature: 25° C. Data was acquired in positive mode using a heated electrospray ionization (HESI) interface. The operational parameters for the TSQ Vantage MS/MS instrument were a spray voltage of 3000 V, capillary temperature of 280° C., vaporizer temperature 400° C., sheath gas 45 arbitrary unit, Aux gas 10 arbitrary units, S-lens 165 and collision gas 1.0 mTorr. […] (SRM) chromatograms of ^13C18-triolein (Q1: 920.8>Q3:621.3) and internal standard ^13C21-triolein (Q1: 923.8>Q3:617.3) were collected for 33 sec. The peak area was integrated by Xcalibur Quan software. The ratio between the ^13C18triolein generated in the reaction and spiked in internal standard ^13C21-triolein was used to generate percentage inhibition and IC50 values. Compound percentage inhibition was calculated by the following formula: Inhibition %=1−[(compound response−low control)/(high control−low control)]×100%. Potent compounds were titrated and IC50 were calculated by 4 parameter sigmoidal curve fitting formula.
DGAT2 activity was determined by measuring the amount of enzymatic product ^13C18-triolein (^13C-1,2,3-Tri(cis-9-octadecenoyl)glycerol) using the membrane prep mentioned above. The assay was carried out in ABgene 384-well assay plates in a final volume of 25 μL at rt. The assay mixture contained the following: assay buffer (100 mM Tris.Cl, pH 7.0, 20 mM MgCl2, 5% ethanol), 25 μM of diolein, 5 μM of ^13C oleoyl-CoA and 8 ng/μL of DGAT2 membrane.
Compound `CCC(O)c1nn(-c2cccc(OC(F)F)c2)c2ccc(C(=O)NC3(C)CS(=O)(=O)C3)cc12` (racemic) [Example 28, 1-(3-(difluoromethoxy)phenyl)-3-(1-hydroxypropyl)-N-(3-methyl-1,1-dioxidothietan-3-yl)-1H-indazole-5-carboxamide] had an IC50 of 78 nM.

Take `CC1(NC(=O)c2ccc3c(c2)c(C(O)C(F)(F)F)nn3-c2cccc(OC(F)F)c2)CS(=O)(=O)C1` (racemic) [Example 30, 1-(3-(difluoromethoxy)phenyl)-N-(3-methyl-1,1-dioxidothietan-3-yl)-3-(2,2,2-trifluoro-1-hydroxyethyl)-1H-indazole-5-carboxamide]: the IC50 came to 47 nM.

In turn, `CC1(NC(=O)c2ccc3c(c2)c(C(O)C(F)F)nn3-c2cccc(OC(F)F)c2)CS(=O)(=O)C1` (racemic) [Example 31] had an IC50 of 94 nM.

Compound `CCC(O)c1nn(-c2cccc(OC(F)F)c2)c2ccc(C(=O)NC3(C)CS(=O)(=O)C3)cc12` (single isomer, unassigned) [Example 28a, 1-(3-(difluoromethoxy)phenyl)-3-(1-hydroxypropyl)-N-(3-methyl-1,1-dioxidothietan-3-yl)-1H-indazole-5-carboxamide] gave an IC50 of 24 nM.

As for `CCC(O)c1nn(-c2cccc(OC(F)F)c2)c2ccc(C(=O)NC3(C)CS(=O)(=O)C3)cc12` (single isomer, unassigned) [Example 28b, 1-(3-(difluoromethoxy)phenyl)-3-(1-hydroxypropyl)-N-(3-methyl-1,1-dioxidothietan-3-yl)-1H-indazole-5-carboxamide], half-maximal inhibition (IC50) was put at 70 nM. Against the preceding compound, the IC50 is about 2.9-fold higher.

`CC1(NC(=O)c2ccc3c(c2)c(C(O)C2CC2)nn3-c2cccc(OC(F)F)c2)CS(=O)(=O)C1` (single isomer, unassigned) [Example 29a, 3-[cyclopropyl(hydroxy)methyl] - 1-[3-(difluoromethoxy)phenyl]-N-(3-methyl-1,1-dioxo-thietan-3-yl)indazole-5-carboxamide] gave an IC50 of 5.1 nM. This IC50 lies about 14-fold lower than the previous one.

Turning to `CC1(NC(=O)c2ccc3c(c2)c(C(O)C2CC2)nn3-c2cccc(OC(F)F)c2)CS(=O)(=O)C1` (single isomer, unassigned) [Example 29b, 3-[cyclopropyl(hydroxy)methyl] - 1-[3-(difluoromethoxy)phenyl]-N-(3-methyl-1,1-dioxo-thietan-3-yl)indazole-5-carboxamide], the IC50 was determined as 205 nM.

`CC1(NC(=O)c2ccc3c(c2)c(C(O)C(F)(F)F)nn3-c2cccc(OC(F)F)c2)CS(=O)(=O)C1` (single isomer, unassigned) [Example 30a, 1-[3-(difluoromethoxy)phenyl]-N-(3-methyl-1,1-dioxo-thietan-3-yl)-3-(2,2,2-trifluoro-1-hydroxy-ethyl)indazole-5-carboxamide]: the half-inhibitory concentration (IC50) was 84 nM.

For `CC1(NC(=O)c2ccc3c(c2)c(C(O)C(F)(F)F)nn3-c2cccc(OC(F)F)c2)CS(=O)(=O)C1` (single isomer, unassigned) [Example 30b, 1-[3-(difluoromethoxy)phenyl]-N-(3-methyl-1,1-dioxo-thietan-3-yl)-3-(2,2,2-trifluoro-1-hydroxy-ethyl)indazole-5-carboxamide], the IC50 was found to be 113 nM. The IC50 values of the last two compounds are within 1.5-fold of each other.

Take `CC(O)c1nn(-c2cccc(OC(F)F)c2)c2ncc(C(=O)NC3(C)CS(=O)(=O)C3)cc12` (single isomer, unassigned) [Example 38a, 1-(3-(difluoromethoxy)phenyl)-3-(l-hydroxyethyl)-N-(3-methyl-1,1-dioxidothietan-3-yl)-1H-pyrazolo[3,4-b]pyridine-5-carboxamide]: the IC50 is 38 nM.

Take `CC(O)c1nn(-c2cccc(OC(F)F)c2)c2ncc(C(=O)NC3(C)CS(=O)(=O)C3)cc12` (single isomer, unassigned) [Example 38b, l-(3-(difluoromethoxy)phenyl)-3-(l-hydroxyethyl)-N-(3-methyl-1,1-dioxidothietan-3-yl)-1H-pyrazolo[3,4-b]pyridine-5-carboxamide]: half-maximal inhibition (IC50) was put at 54 nM. The IC50 values of the last two compounds are within 1.5-fold of each other.

In turn, `Cn1nccc1-c1nn(-c2cccc(OC(F)F)c2)c2ccc(C(=O)NC3(C)CS(=O)(=O)C3)cc12` [Example 1, 1-[3-(difluoromethoxy)phenyl]-N-(3-methyl-1,1-dioxo-thietan-3-yl)-3-(2-methylpyrazol-3-yl)indazole-5-carboxamide] gave an IC50 of 46 nM. This IC50 and that of the compound before are within 1.5-fold of each other.

In turn, `Cn1ccc(-c2nn(-c3cccc(OC(F)F)c3)c3ccc(C(=O)NC4(C)CS(=O)(=O)C4)cc23)n1` [Example 2, 1-(3-(difluoromethoxy)phenyl)-N-(3-methyl-1,1-dioxo-thietan-3-yl)-3-(l-methylpyrazol-3-yl)indazole-5-carboxamide] registered an IC50 of 18 nM.

In the case of `Cn1nccc1-n1nc(-c2ccc(F)cc2)c2cc(C(=O)NC3(C)CS(=O)(=O)C3)ccc21` [Example 3, 3-(4-fluorophenyl)-N-(3-methyl-1,1-dioxo-thietan-3-yl)-1-(2-methylpyrazol-3-yl)indazole-5-carboxamide], the IC50 was determined as 389 nM.

`C[C@]1(NC(=O)c2cnc3c(c2)c(-c2ccc(F)cc2)nn3-c2cccc(OC(F)F)c2)CCS(=O)(=O)C1` [Example 4, (S)-1-(3-(difluoromethoxy)phenyl)-3-(4-fluorophenyl)-N-(3-methyl-l,1-dioxo-thiolan-3-yl)pyrazolo[3,4-b]pyridine-5-carboxamide] displayed an IC50 of 3.2 nM.

Compound `C[C@]1(NC(=O)c2ccc3c(c2)c(-c2ccc(F)cc2)cn3-c2ccccc2Cl)CCS(=O)(=O)C1` [Example 5, (S)-1-(2-chlorophenyl)-3-(4-fluorophenyl)-N-(3-methyl-1,1-dioxidotetrahydrothiophen-3-yl)-1H-indole-5-carboxamide] came in with an IC50 of 115 nM.

For the compound `C[C@]1(NC(=O)c2ccc3c(c2)c(-c2ccc(F)cc2)cn3-c2cccc(OC(F)F)c2)CCS(=O)(=O)C1` [Example 6, (S)-1-(3-(difluoromethoxy)phenyl)-3-(4-fluorophenyl)-N-(3 - methyl-1,1-dioxidotetrahydrothiophen-3-yl)-1H-indole-5-carboxamide], the concentration for half-maximal inhibition (IC50) came to 0.5 nM. Against the preceding compound, the IC50 is about 230-fold lower.

`C[C@]1(NC(=O)c2ccc3c(c2)c(-c2ccc(F)cc2)cn3-c2ccc(F)cc2)CCS(=O)(=O)C1` [Example 7, (S)-1,3-bis(4-fluorophenyl)-N-(3-methyl-1,1-dioxidotetrahydrothiophen-3-yl)-1H-indole-5-carboxamide] displayed an IC50 of 578 nM.

The compound `CC1(NC(=O)c2ccc3c(ccn3-c3cccc(OC(F)F)c3)c2)CS(=O)(=O)C1` [Example 8, 1-(3-(difluoromethoxy)phenyl)-N-(3-methyl-1,1-dioxidothietan-3-yl)-1H-indole-5-carboxamide] came in with an IC50 of 134 nM.

As for `CC(C)(CN1CCOCC1)NC(=O)c1ccc2c(c1)c(-c1ccccc1Cl)cn2-c1ccc(F)cc1` [Example 9, 3-(2-chlorophenyl)-1-(4-fluorophenyl)-N-(2-methyl-l-morpholinopropan-2-yl)-1H-indole-5-carboxamide], the IC50 is 12300 nM. This IC50 lies about 92-fold higher than the previous one.

With `COCC(C)NC(=O)c1ccc2c(c1)c(-c1ccccc1Cl)cn2-c1ccc(F)cc1` (stereo not shown) [Example 10, 3-(2-chlorophenyl)-1-(4-fluorophenyl)-N-(1-methoxypropan-2-yl)-1H-indole-5-carboxamide], the IC50 was determined as 3510 nM.

In turn, `CC(C)c1nn(-c2cccc(OC(F)F)c2)c2ncc(C(=O)N[C@@]3(C)CCS(=O)(=O)C3)cc12` [Example 11, (S)-1-(3-(difluoromethoxy)phenyl)-3-isopropyl-N-(3-methyl-1,1-dioxidotetrahydrothlophen-3-yl)-1H-pyrazolo[3,4-b]pyridine-5-carboxamide] returned an IC50 of 16 nM.
